Measurements from PubChem BioAssay AID248 (DTP/NCI, 2004).
Values joined by “and” are separate entries in the source; they are usually repeats but may differ in a detail not shown here. Identical values can stand only once. Inconclusive results and toxic doses are left out. No stated cut-off is given here; in the data, active means T/C of 150% or more; inactive means T/C below 125%.

Test system: L1210 leukemia ip in BDF1 mice, survival T/C
Test: NCI In Vivo Anticancer Drug Screen. Data for tumor model L1210 Leukemia (intraperitoneal) in B6D2F1 (BDF1) mice
Settings: endpoint: mean survival time, higher = longer survival
Procedure, shortened: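 Read-out is survival time, reported as the treated-group measurement over the vehicle-control measurement.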

[1] = dose: 100.0 mg/kg/injection, schedule: Q01DX001 (ip), vehicle: other
[2] = dose: 100.0 mg/kg/injection, schedule: Q04DX003 (ip), vehicle: Klucel (hydroxypropylcellulose) (HPC)
[3] = dose: 200.0 mg/kg/injection, schedule: Q01DX009 (ip), vehicle: Klucel (hydroxypropylcellulose) (HPC)
[4] = dose: 200.0 mg/kg/injection, schedule: Q04DX003 (ip), vehicle: Klucel (hydroxypropylcellulose) (HPC)
[5] = dose: 400.0 mg/kg/injection, schedule: Q04DX003 (ip), vehicle: Klucel (hydroxypropylcellulose) (HPC)
[6] = dose: 100.0 mg/kg/injection, schedule: Q01DX009 (ip), vehicle: Klucel (hydroxypropylcellulose) (HPC)
[7] = dose: 25.0 mg/kg/injection, schedule: Q01DX009 (ip), vehicle: Klucel (hydroxypropylcellulose) (HPC)
[8] = dose: 50.0 mg/kg/injection, schedule: Q01DX001 (ip), vehicle: saline
[9] = dose: 100.0 mg/kg/injection, schedule: Q01DX001 (ip), vehicle: Klucel (hydroxypropylcellulose) (HPC)
[10] = dose: 200.0 mg/kg/injection, schedule: Q01DX001 (ip), vehicle: Klucel (hydroxypropylcellulose) (HPC)

Measured: T/C

O=[N+]([O-])C1C=NCCN=C1
inactive: dose: 100.0 mg/kg/injection, schedule: Q04DX013 (ip), vehicle: carboxymethylcellulose (CMC) 96 % of control | dose: 200.0 mg/kg/injection, schedule: Q04DX013 (ip), vehicle: carboxymethylcellulose (CMC) 94 % of control | dose: 400.0 mg/kg/injection, schedule: Q04DX013 (ip), vehicle: carboxymethylcellulose (CMC) 94 % of control

Oc1ccc2c(c1)CCc1cn[nH]c1-2
inactive: [1] 102 % of control | dose: 100.0 mg/kg/injection, schedule: Q01DX009 (ip), vehicle: other 98 % of control | dose: 200.0 mg/kg/injection, schedule: Q01DX001 (ip), vehicle: other 103 % of control | dose: 200.0 mg/kg/injection, schedule: Q01DX009 (ip), vehicle: other 96 % of control | dose: 400.0 mg/kg/injection, schedule: Q01DX001 (ip), vehicle: other 98 % of control | dose: 400.0 mg/kg/injection, schedule: Q01DX009 (ip), vehicle: other 94 % of control

C=C1C=C(C)N(C(=O)c2ccccc2)CCN1C(=O)c1ccccc1
inactive: dose: 100.0 mg/kg/injection, schedule: Q04DX003 (ip), vehicle: saline 96 % of control | dose: 200.0 mg/kg/injection, schedule: Q04DX003 (ip), vehicle: saline 95 % of control | dose: 400.0 mg/kg/injection, schedule: Q04DX003 (ip), vehicle: saline 106 % of control

CCO/C=C1\SC(=S)N(c2ccccc2C)C1=O
inactive: [2] 98 % of control | dose: 100.0 mg/kg/injection, schedule: Q04DX003 (ip), vehicle: saline with Tween-80 100 % of control | [3] 91 % of control | [4] 109 % of control | dose: 200.0 mg/kg/injection, schedule: Q04DX003 (ip), vehicle: saline with Tween-80 100 % of control | [5] 104 % of control | dose: 400.0 mg/kg/injection, schedule: Q04DX003 (ip), vehicle: saline with Tween-80 91 % of control

CO[C@H]1C=CC2=CCN3CCC4=C(CC(=O)OC4)[C@]23C1
inactive: dose: 10.0 mg/kg/injection, schedule: Q01DX001 (ip), vehicle: saline 104 % of control | dose: 20.0 mg/kg/injection, schedule: Q01DX001 (ip), vehicle: saline 96 % of control

Cc1nc(Cl)cc(=O)[nH]1
inactive: [6] 90 % of control | [2] 101 % of control | [3] 97 % of control | [4] 90 % of control | dose: 400.0 mg/kg/injection, schedule: Q01DX009 (ip), vehicle: Klucel (hydroxypropylcellulose) (HPC) 90 % of control | [5] 91 % of control

O=C(CBr)Nc1ccc(Cl)cc1
inactive: dose: 2.0 mg/kg/injection, schedule: Q04DX003 (ip), vehicle: Klucel (hydroxypropylcellulose) (HPC) 96 % of control | dose: 3.12 mg/kg/injection, schedule: Q01DX009 (ip), vehicle: Klucel (hydroxypropylcellulose) (HPC) 92 % of control | dose: 4.0 mg/kg/injection, schedule: Q04DX003 (ip), vehicle: Klucel (hydroxypropylcellulose) (HPC) 104 % of control | dose: 6.25 mg/kg/injection, schedule: Q01DX009 (ip), vehicle: Klucel (hydroxypropylcellulose) (HPC) 102 % of control | dose: 9.0 mg/kg/injection, schedule: Q04DX003 (ip), vehicle: Klucel (hydroxypropylcellulose) (HPC) 100 % of control | dose: 12.5 mg/kg/injection, schedule: Q01DX009 (ip), vehicle: Klucel (hydroxypropylcellulose) (HPC) 89 % of control | dose: 19.0 mg/kg/injection, schedule: Q04DX003 (ip), vehicle: Klucel (hydroxypropylcellulose) (HPC) 104 % of control and 91 % of control | [7] 89 % of control | dose: 50.0 mg/kg/injection, schedule: Q01DX001 (ip), vehicle: other 95 % of control | [1] 101 % of control

ON=C1CSSC1
inactive: dose: 1.0 mg/kg/injection, schedule: Q01DX009 (ip), vehicle: saline with Tween-80 97 % of control | dose: 1.56 mg/kg/injection, schedule: Q04DX003 (ip), vehicle: saline with Tween-80 97 % of control | dose: 2.0 mg/kg/injection, schedule: Q01DX009 (ip), vehicle: saline with Tween-80 97 % of control | dose: 3.12 mg/kg/injection, schedule: Q04DX003 (ip), vehicle: saline with Tween-80 106 % of control | dose: 4.0 mg/kg/injection, schedule: Q01DX009 (ip), vehicle: saline with Tween-80 101 % of control | dose: 6.25 mg/kg/injection, schedule: Q04DX003 (ip), vehicle: saline with Tween-80 101 % of control | dose: 8.0 mg/kg/injection, schedule: Q01DX009 (ip), vehicle: saline with Tween-80 104 % of control | dose: 12.5 mg/kg/injection, schedule: Q04DX003 (ip), vehicle: saline with Tween-80 89 % of control and 90 % of control

N#CSCC(CCCCCCCCC(=O)O)SC#N (stereo unspecified)
inactive: dose: 12.5 mg/kg/injection, schedule: Q04DX002 (ip), vehicle: saline with Tween-80 91 % of control | dose: 25.0 mg/kg/injection, schedule: Q04DX002 (ip), vehicle: saline with Tween-80 100 % of control

Clc1cccc(/C=N/Nc2nnc(N/N=C/c3cccc(Cl)c3)c3ccccc23)c1
inactive: [8] 100 % of control | dose: 100.0 mg/kg/injection, schedule: Q01DX001 (ip), vehicle: saline 103 % of control | dose: 200.0 mg/kg/injection, schedule: Q01DX001 (ip), vehicle: saline 100 % of control | dose: 400.0 mg/kg/injection, schedule: Q01DX001 (ip), vehicle: saline 100 % of control

NC(N)=NC(N)=Nc1cccc(Cl)c1
inactive: [7] 108 % of control and 88 % of control | dose: 50.0 mg/kg/injection, schedule: Q01DX009 (ip), vehicle: Klucel (hydroxypropylcellulose) (HPC) 94 % of control and 97 % of control | [9] 93 % of control | [2] 105 % of control | [10] 103 % of control

c1ccc(OCCC[P+](c2ccccc2)(c2ccccc2)c2ccccc2)cc1
inactive: [8] 100 % of control

COc1ccc(NC(=O)Oc2ccc(Br)cc2Br)c(OC)c1
inactive: [6] 108 % of control | [3] 113 % of control

CSCC(C(N)=O)c1cc(Cl)ccc1Cl (stereo unspecified)
inactive: [9] 107 % of control | dose: 100.0 mg/kg/injection, schedule: Q01DX009 (ip), vehicle: water 100 % of control | [2] 102 % of control | dose: 100.0 mg/kg/injection, schedule: Q04DX003 (ip), vehicle: water 100 % of control | [10] 103 % of control | dose: 200.0 mg/kg/injection, schedule: Q01DX009 (ip), vehicle: water 94 % of control | [4] 104 % of control | dose: 200.0 mg/kg/injection, schedule: Q04DX003 (ip), vehicle: water 100 % of control | dose: 400.0 mg/kg/injection, schedule: Q01DX001 (ip), vehicle: Klucel (hydroxypropylcellulose) (HPC) 102 % of control | dose: 400.0 mg/kg/injection, schedule: Q01DX009 (ip), vehicle: water 94 % of control | [5] 96 % of control | dose: 400.0 mg/kg/injection, schedule: Q04DX003 (ip), vehicle: water 90 % of control
